According to patent publication US10544120B2, “Biaryl kinase inhibitors” (BRISTOL-MYERS SQUIBB COMPANY, priority 2015, dated 2020):

Target: GST-Xa-hAAK1 (Homo sapiens (Human), UniProt Q2M2I8)
Experiment: AAK1 Kinase Assay
Assay type: biochemical
Conditions: bacterially expressed GST-Xa-hAAK1 3.5 nM; ATP 22 μM; fluoresceinated peptide 1.5 μM; 3 hours at room temperature; Caliper LabChip 3000
Summary of the method: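 Bacterially expressed GST-Xa-hAAK1 was combined with substrates and compounds (eleven concentrations) and incubated 3 h at room temperature, then stopped with EDTA. Fluorescent substrate and phosphorylated product were separated electrophoretically (Caliper LabChip), and IC50 values came from non-linear regression.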

Sequence of GST-Xa-hAAK1 (Q2M2I8 whole entry): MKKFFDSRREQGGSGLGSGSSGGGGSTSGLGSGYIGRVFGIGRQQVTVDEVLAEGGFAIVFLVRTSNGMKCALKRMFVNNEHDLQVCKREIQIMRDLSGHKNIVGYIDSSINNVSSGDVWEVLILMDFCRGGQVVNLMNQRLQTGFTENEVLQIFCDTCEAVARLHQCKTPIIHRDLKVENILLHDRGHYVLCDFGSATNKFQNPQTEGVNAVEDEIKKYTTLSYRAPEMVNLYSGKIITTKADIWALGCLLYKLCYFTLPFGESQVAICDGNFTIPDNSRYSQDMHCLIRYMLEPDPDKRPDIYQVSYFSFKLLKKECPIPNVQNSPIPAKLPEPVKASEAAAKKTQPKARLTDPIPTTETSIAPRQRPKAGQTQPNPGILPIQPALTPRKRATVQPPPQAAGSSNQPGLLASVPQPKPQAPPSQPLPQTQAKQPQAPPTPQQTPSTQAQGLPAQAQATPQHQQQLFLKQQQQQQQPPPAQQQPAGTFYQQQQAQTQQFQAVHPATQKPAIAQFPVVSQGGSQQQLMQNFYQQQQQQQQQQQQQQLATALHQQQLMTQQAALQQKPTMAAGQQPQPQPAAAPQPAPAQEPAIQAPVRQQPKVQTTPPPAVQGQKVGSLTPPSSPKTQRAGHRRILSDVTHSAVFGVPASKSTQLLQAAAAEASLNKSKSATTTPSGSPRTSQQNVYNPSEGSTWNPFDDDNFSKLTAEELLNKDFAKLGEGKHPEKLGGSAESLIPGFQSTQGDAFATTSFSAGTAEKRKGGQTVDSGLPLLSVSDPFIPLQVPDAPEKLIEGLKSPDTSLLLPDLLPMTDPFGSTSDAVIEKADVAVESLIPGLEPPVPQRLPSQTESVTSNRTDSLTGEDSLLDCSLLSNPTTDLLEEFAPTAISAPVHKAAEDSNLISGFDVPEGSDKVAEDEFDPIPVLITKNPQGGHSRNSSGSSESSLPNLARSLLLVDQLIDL

Structure (SMILES) | IC50
CC(C)CCC(=O)Nc1cc(-c2ccc(OC[C@@](C)(N)CC(C)C)c(C(F)(F)F)c2)ccn1 [Example 397, (S)-N-(4-(4-((2-amino-2,4-dimethylpentyl)oxy)-3-(trifluoromethyl)phenyl)pyridin-2-yl)-4-methylpentanamide] | 0.7 nM
Cc1nc(-c2ccnc(N)c2)ccc1OC[C@@](C)(N)CC(C)C [Example 422, (S)-5-((2-amino-2,4-dimethylpentyl)oxy)-6-methyl-[2,4′-bipyridin]-2′-amine] | 3.5 nM
Cc1cc(-c2cc(N)ncn2)ccc1OC[C@@](C)(N)CC(C)C [Example 431, (S)-6-(4-((2-amino-2,4-dimethylpentyl)oxy)-3-methylphenyl)pyrimidin-4-amine] | 5.4 nM
COC(=O)Nc1cc(-c2ccc(OC[C@@](C)(N)CC(C)C)c(C(F)(F)F)c2)ncn1 [Example 432, (S)-methyl (6-(4-((2-amino-2,4-dimethylpentyl)oxy)-3-(trifluoromethyl)phenyl)pyrimidin-4-yl)carbamate] | 0.7 nM
COC(=O)Nc1cc(-c2ccc(OC[C@@](C)(N)CC(C)C)c(C)c2)ncn1 [Example 433, (S)-methyl (6-(4-((2-amino-2,4-dimethylpentyl)oxy)-3-methylphenyl)pyrimidin-4-yl)carbamate] | 1.8 nM
Cc1cc(-c2cc(F)c(OC[C@@](C)(N)CC(C)C)cc2F)ncn1 [Example 435, (S)-1-(2,5-difluoro-4-(6-methylpyrimidin-4-yl)phenoxy)-2,4-dimethylpentan-2-amine] | 63 nM
Cc1cc(-c2ccc(OC[C@@](C)(N)CC(C)C)c(C#N)c2)ncn1 [Example 436, (S)-2-((2-amino-2,4-dimethylpentyl)oxy)-5-(6-methylpyrimidin-4-yl)benzonitrile] | 6.2 nM
COC(=O)Nc1cc(-c2cnc(OC[C@@](C)(N)CC(C)C)c(Cl)c2)ncn1 [Example 437, (S)-methyl (6-(6-((2-amino-2,4-dimethylpentyl)oxy)-5-chloropyridin-3-yl)pyrimidin-4-yl)carbamate] | 2.2 nM
COC(=O)Nc1cc(-c2cnc(OC[C@@](C)(N)CC(C)C)c(C)c2)ncn1 [Example 438, (S)-methyl (6-(6-((2-amino-2,4-dimethylpentyl)oxy)-5-methylpyridin-3-yl)pyrimidin-4-yl)carbamate] | 6.5 nM
COc1cc(-c2ccc(OC[C@@](C)(N)CC(C)C)c(C#N)c2)ncn1 [Example 439, (S)-2-((2-amino-2,4-dimethylpentyl)oxy)-5-(6-methoxypyrimidin-4-yl)benzonitrile] | 128 nM
COc1cc(-c2ccc(OC[C@@](C)(N)CC(C)C)c(C(F)(F)F)c2)ncn1 [Example 440, (S)-1-(4-(6-methoxypyrimidin-4-yl)-2-(trifluoromethyl)phenoxy)-2,4-dimethylpentan-2-amine] | 308 nM
CC(C)C[C@](C)(N)COc1ccc(-c2cc(Cl)ncn2)cc1C#N [Example 441, (S)-2-((2-amino-2,4-dimethylpentyl)oxy)-5-(6-chloropyrimidin-4-yl)benzonitrile] | 15 nM
CC(C)C[C@](C)(N)COc1ccc(-c2cc(Cl)ncn2)cc1C(F)(F)F [Example 442, (S)-1-(4-(6-chloropyrimidin-4-yl)-2-(trifluoromethyl)phenoxy)-2,4-dimethylpentan-2-amine] | 19 nM
CCc1cc(-c2ccc(OC[C@@](C)(N)CC(C)C)c(C#N)c2)ncn1 [Example 443, (S)-2-((2-amino-2,4-dimethylpentyl)oxy)-5-(6-ethylpyrimidin-4-yl)benzonitrile] | 46 nM
CCc1cc(-c2ccc(OC[C@@](C)(N)CC(C)C)c(C(F)(F)F)c2)ncn1 [Example 444, (S)-1-(4-(6-ethylpyrimidin-4-yl)-2-(trifluoromethyl)phenoxy)-2,4-dimethylpentan-2-amine] | 153 nM

More lines, now with the values ahead:

IC50 | Structure (SMILES)
62 nM | Cc1cc(-c2cnc(OC[C@@](C)(N)CC(C)C)c(Cl)c2)ncn1 [Example 445, (S)-1-((3-chloro-5-(6-methylpyrimidin-4-yl)pyridin-2-yl)oxy)-2,4-dimethylpentan-2-amine]
317 nM | Cc1cc(-c2cnc(OC[C@@](C)(N)CC(C)C)c(C)c2)ncn1 [Example 446, (S)-2,4-dimethyl-1-((3-methyl-5-(6-methylpyrimidin-4-yl)pyridin-2-yl)oxy)pentan-2-amine]
304 nM | CCc1cc(-c2cnc(OC[C@@](C)(N)CC(C)C)c(C)c2)ncn1 [Example 447, (S)-1-((5-(6-ethylpyrimidin-4-yl)-3-methylpyridin-2-yl)oxy)-2,4-dimethylpentan-2-amine]
126 nM | Cc1cc(-c2cc(C)c(OC[C@@](C)(N)CC(C)C)cn2)ncn1 [Example 450, (S)-2,4-dimethyl-1-((4-methyl-6-(6-methylpyrimidin-4-yl)pyridin-3-yl)oxy)pentan-2-amine]
2.7 nM | Cc1nc(-c2ccnc(Cl)n2)ccc1OC[C@@](C)(N)CC(C)C [Example 451, (S)-1-((6-(2-chloropyrimidin-4-yl)-2-methylpyridin-3-yl)oxy)-2,4-dimethylpentan-2-amine]
2.4 nM | Cc1nccc(-c2ccc(OC[C@@](C)(N)CC(C)C)c(C(F)(F)F)n2)n1 [Example 454, (S)-2,4-dimethyl-1-((6-(2-methylpyrimidin-4-yl)-2-(trifluoromethyl)pyridin-3-yl)oxy)pentan-2-amine]
1.5 nM | Cc1nccc(-c2ccc(OC[C@@](C)(N)CC(C)C)c(C#N)c2)n1 [Example 458, (S)-2-(2-amino-2,4-dimethylpentyloxy)-5-(2-methylpyrimidin-4-yl) benzonitrile]
21 nM | Cc1nccc(-c2ccc(OC[C@@](C)(N)CC(C)C)c(F)c2)n1 [Example 462, (S)-1-(2-fluoro-4-(2-methylpyrimidin-4-yl)phenoxy)-2,4-dimethylpentan-2-amine]
3.6 nM | CC(C)C[C@](C)(N)COc1ccc(-c2ccnc(C(F)(F)F)n2)cc1Cl [Example 465, (S)-1-(2-chloro-4-(2-(trifluoromethyl)pyrimidin-4-yl)phenoxy)-2,4-dimethylpentan-2-amine]
1.5 nM | Cc1nccc(-c2ccc(OC[C@@](C)(N)CC(C)C)c(Cl)c2)n1 [Example 469, (S)-1-(2-chloro-4-(2-methylpyrimidin-4-yl)phenoxy)-2,4-dimethylpentan-2-amine]
6.6 nM | CC(C)C[C@](C)(N)COc1ccc(-c2ccnc(C(F)(F)F)n2)cc1C#N [Example 474, (S)-2-(2-amino-2,4-dimethylpentyloxy)-5-(2-(trifluoromethyl)pyrimidin-4-yl)benzonitrile]
533 nM | Cc1cc(-c2ccc(OC[C@@](C)(N)CC(C)C)c(C(F)(F)F)c2)nc(C)n1 [Example 479, (S)-1-(4-(2,6-dimethylpyrimidin-4-yl)-2-(trifluoromethyl)phenoxy)-2,4-dimethylpentan-2-amine]
18 nM | CC(C)C[C@](C)(N)COc1ccc(-c2ccnc(C(C)C)n2)cc1Cl [Example 480, (S)-1-(2-chloro-4-(2-isopropylpyrimidin-4-yl)phenoxy)-2,4-dimethylpentan-2-amine]
3.2 nM | Cc1nccc(-c2ccc(OC[C@@](C)(N)CC(C)C)c(C)n2)n1 [Example 484, (S)-2,4-dimethyl-1-(2-methyl-6-(2-methylpyrimidin-4-yl)pyridin-3-yloxy)pentan-2-amine]
1290 nM | Cc1nccc(-c2cc(C#N)c(OC[C@@](C)(N)CC(C)C)cn2)n1 [Example 487, (S)-5-(2-amino-2,4-dimethylpentyloxy)-2-(2-methylpyrimidin-4-yl)isonicotinonitrile]
789 nM | Cc1nccc(-c2ccc(OCC(N)(CC(C)C)C(F)(F)F)c(C)n2)n1 (stereo not shown) [Example 491, 1,1,1-trifluoro-4-methyl-2-(((2-methyl-6-(2-methylpyrimidin-4-yl)pyridin-3-yl)oxy)methyl)pentan-2-amine]
8.7 nM | COC(=O)Nc1nccc(-c2ccc(OC[C@@](C)(N)CC(C)C)cc2)n1 [Example 505, (S)-methyl (4-(4-((2-amino-2,4-dimethylpentyl)oxy)phenyl)pyrimidin-2-yl)carbamate]
134 nM | Cc1nccc(-c2cc(F)c(OC[C@@](C)(N)CC(C)C)cc2F)n1 [Example 506, (S)-1-(2,5-difluoro-4-(2-methylpyrimidin-4-yl)phenoxy)-2,4-dimethylpentan-2-amine]
5 nM | COC(=O)Nc1cc(-c2cc(F)c(OC[C@@](C)(N)CC(C)C)cc2F)ncn1 [Example 507, (S)-methyl (6-(4-((2-amino-2,4-dimethylpentyl)oxy)-2,5-difluorophenyl)pyrimidin-4-yl)carbamate]
25 nM | COC(=O)Nc1nccc(-c2cc(F)c(OC[C@@](C)(N)CC(C)C)cc2F)n1 [Example 508, (S)-methyl (4-(4-((2-amino-2,4-dimethylpentyl)oxy)-2,5-difluorophenyl)pyrimidin-2-yl)carbamate]
19 nM | CC(C)C[C@](C)(N)COc1cc(F)c(-c2ccnc(C(F)F)c2)cc1F [Example 510, (S)-1-(4-(2-(difluoromethyl)pyridin-4-yl)-2,5-difluorophenoxy)-2,4-dimethylpentan-2-amine]
5.1 nM | Cc1nccc(-c2ccc(OC[C@@](C)(N)CC(C)C)c(F)c2F)n1 [Example 511, (S)-1-(2,3-difluoro-4-(2-methylpyrimidin-4-yl)phenoxy)-2,4-dimethylpentan-2-amine]
